Data on eleven compounds can be found in ChEMBL document CHEMBL1201862, “PubChem BioAssay data set” (2004).

Among the test systems are HOP-62; HL-60; SW-620; HCT-15; BT-549; UO-31; NCI-H522; LOX IMVI; U-251; DU-145; MDA-N; SF-539; CAKI-1; CCRF-CEM; OVCAR-4; SK-MEL-2; SK-OV-3; SF-295; KM12.
Assay in all cases: NCI tumour cell line growth inhibition, 48 h

SMILES strings stand for the structures.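 Method: 48-hour compound exposure of cells in 96-well plates, five concentrations, linear interpolation of endpoints. At the GI50, growth is halved.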 Activity calls are given as the source filed them. Rule as the data show it: active = GI50 up to about 1.1 µM and inactive = higher.

`COc1ccc2nc3cc(Cl)ccc3c(NCCNC(=O)Cn3c(=O)n(C)c(=O)c4c3nc3c(c(=O)n(C)c(=O)n3C)[n+]4[O-])c2c1`: the GI50 was 20.7 µM (inactive) with HOP-62; > 100 µM (inactive) in the assay on HL-60; 34.2 µM (inactive) in the assay on SW-620; more than 100 µM in the assay with HCT-15; 23 µM (inactive) with BT-549; > 100 µM (inactive) with UO-31. Also, the GI50 was 25.4 µM (inactive) in the assay with NCI-H522; 38.3 µM (inactive) in the assay on LOX IMVI; 21 µM (inactive) in the assay with U-251; > 84.3 µM (inactive) in the assay on DU-145; 46.3 µM (inactive) with MDA-N; 23.7 µM (inactive) in the assay with SF-539. Besides, the GI50 in the assay on CAKI-1 is > 80 µM (inactive); in the assay on CCRF-CEM it was 50 µM (inactive); in the assay on OVCAR-4, > 64.7 µM (inactive); in the assay on SK-MEL-2, 35.2 µM (inactive); with SK-OV-3 it was 32.1 µM (inactive); in the assay on SF-295 it was 44.8 µM (inactive). Moreover, the GI50 in the assay on KM12 was 61.8 µM (inactive).

As to `CC(C)(C)N(Cc1ccc2c(c1)OCO2)C(=O)/C=C\Sc1ccccc1`, the GI50 with HOP-62 is > 100 µM (inactive); in the assay on HL-60 it was 37.1 µM (inactive); in the assay with SW-620 it was 99.8 µM (inactive); with HCT-15, 63.8 µM; in the assay on BT-549, 42.6 µM (inactive); in the assay on UO-31, 43 µM (inactive). Besides, the GI50 was 6.98 µM (inactive) in the assay with NCI-H522; 77.8 µM (inactive) in the assay with LOX IMVI; 63.7 µM (inactive) in the assay with U-251; > 100 µM (inactive) with DU-145; 19.5 µM (inactive) in the assay with MDA-N; > 100 µM (inactive) with SF-539. Also, the GI50 was > 100 µM (inactive) with CAKI-1; 43.5 µM (inactive) with CCRF-CEM; 77.8 µM (inactive) with OVCAR-4; 25.2 µM (inactive) in the assay with SK-MEL-2; > 100 µM (inactive) in the assay with SK-OV-3; > 100 µM (inactive) with SF-295. Also, in the assay with KM12, the GI50 is 81.8 µM (inactive).

Take `CCCCc1ccc(Nc2ncc3ncn(COCCO)c3n2)cc1`: the GI50 was 26.6 µM (inactive) in the assay on HOP-62; 23.8 µM (inactive) in the assay on HL-60; 47.9 µM (inactive) with SW-620; 34.9 µM with HCT-15; 36.1 µM (inactive) with BT-549; 21.1 µM (inactive) in the assay with UO-31. Further, the GI50 was 34.1 µM (inactive) in the assay with NCI-H522; 17.9 µM (inactive) in the assay on LOX IMVI; 39.4 µM (inactive) in the assay with U-251; 33.3 µM (inactive) with DU-145; 32 µM (inactive) in the assay on MDA-N; 29.3 µM (inactive) in the assay on SF-539. Moreover, the GI50 with CAKI-1 is 49.1 µM (inactive); in the assay on CCRF-CEM, 20.8 µM (inactive); with OVCAR-4, 41.1 µM (inactive); with SK-MEL-2, 25.2 µM (inactive); in the assay on SK-OV-3, 79.8 µM (inactive); in the assay with SF-295, 27.3 µM (inactive). Also, in the assay with KM12, the GI50 is 27.3 µM (inactive).

As to `CCN(CC)Cc1ccc(Nc2c3ccccc3nc3ccccc23)cc1`, the GI50 in the assay on HOP-62 was 2.38 µM (inactive); in the assay on HL-60, 2.79 µM (inactive); with SW-620, 1.64 µM (inactive); in the assay with HCT-15, 1 µM; in the assay with BT-549 it was 10.1 µM (inactive); in the assay with UO-31, 1.9 µM (inactive). Moreover, the GI50 in the assay with NCI-H522 is 1.41 µM (inactive); with LOX IMVI it was 1.56 µM (inactive); in the assay with U-251, 2.16 µM (inactive); with DU-145, 2.37 µM (inactive); in the assay on MDA-N, 1.53 µM (inactive); in the assay on SF-539, 1.8 µM (inactive). The GI50 in the assay with CAKI-1 was 1.41 µM (inactive); in the assay with CCRF-CEM, 1.82 µM (inactive); with OVCAR-4 it was 2.57 µM (inactive); with SK-MEL-2, 2.99 µM (inactive); in the assay with SK-OV-3 it was 2 µM (inactive); in the assay on SF-295, 2.62 µM (inactive). In addition, the GI50 in the assay with KM12 is 3.17 µM (inactive).

With `CC(C)(C)[Si](C)(C)Oc1ccc(C2CNC(=O)C23CCC(=O)N3Cc2ccccc2)cc1` (centres undefined), the GI50 in the assay with HOP-62 is 20.5 µM (inactive); in the assay on HL-60 it was 4.62 µM (inactive); with SW-620, 15.1 µM (inactive); with HCT-15, 12.8 µM; with BT-549 it was 15.5 µM (inactive); in the assay on UO-31 it was 16 µM (inactive). Also, the GI50 was 10.7 µM (inactive) with NCI-H522; 16.1 µM (inactive) in the assay on LOX IMVI; 12.5 µM (inactive) in the assay with U-251; 16.7 µM (inactive) in the assay on DU-145; 13.3 µM (inactive) in the assay on MDA-N; 16.7 µM (inactive) in the assay with SF-539. In addition, the GI50 in the assay on CAKI-1 was 19.7 µM (inactive); in the assay on CCRF-CEM, 17.6 µM (inactive); in the assay with OVCAR-4 it was 13.7 µM (inactive); with SK-MEL-2, 16.6 µM (inactive); in the assay on SK-OV-3, 15.5 µM (inactive); with SF-295 it was 13.9 µM (inactive). The GI50 with KM12 is 15.8 µM (inactive).

For the compound `Cn1c([N+](=O)[O-])cnc1CN1CCN(CCO)CC1`, the GI50 in the assay with HOP-62 is > 100 µM (inactive); in the assay on HL-60, > 100 µM (inactive); in the assay with SW-620, > 100 µM (inactive); in the assay on HCT-15, more than 100 µM; in the assay with BT-549, > 100 µM (inactive); in the assay on UO-31, > 100 µM (inactive). The GI50 in the assay on NCI-H522, in the assay with LOX IMVI, with U-251, in the assay on DU-145, in the assay on MDA-N and in the assay with SF-539 was > 100 µM (inactive) in each case. In addition, the GI50 in the assay with CAKI-1, in the assay with CCRF-CEM, in the assay on OVCAR-4, in the assay with SK-MEL-2, with SK-OV-3 and in the assay on SF-295 was > 100 µM (inactive) in each case. The GI50 in the assay with KM12 was > 100 µM (inactive).

As for `CC1(CC(=O)O)OC2CCCCCC2O1.NCc1ccccc1` (centres undefined), the GI50 is > 100 µM (inactive) in the assay with HOP-62; > 100 µM (inactive) in the assay with HL-60; > 100 µM (inactive) in the assay on SW-620; more than 100 µM in the assay with HCT-15; > 100 µM (inactive) in the assay with BT-549; > 100 µM (inactive) in the assay on UO-31. The GI50 in the assay on NCI-H522 was > 100 µM (inactive); with LOX IMVI, > 100 µM (inactive); with U-251, 91.4 µM (inactive); in the assay with DU-145 it was > 100 µM (inactive); in the assay with MDA-N, 73.8 µM (inactive); with SF-539, > 100 µM (inactive). Further, the GI50 in the assay with CAKI-1 is > 100 µM (inactive); in the assay on CCRF-CEM it was 34.2 µM (inactive); in the assay with OVCAR-4, > 100 µM (inactive); in the assay on SK-MEL-2, > 100 µM (inactive); in the assay on SK-OV-3 it was > 100 µM (inactive); in the assay on SF-295, > 100 µM (inactive). For the same compound, in the assay with KM12, the GI50 was 64.6 µM (inactive).

As to `CCOC(=O)/C(=C\NCC(OCC)OCC)c1nc2ccccc2[nH]1`, the GI50 in the assay on HOP-62 is 31.8 µM (inactive); with HL-60, 23.9 µM (inactive); in the assay with SW-620 it was 41.4 µM (inactive); with HCT-15, 10 µM; in the assay with BT-549, 22.4 µM (inactive); with UO-31 it was 13.3 µM (inactive). For the same compound, the GI50 with NCI-H522 is 21.4 µM (inactive); in the assay on LOX IMVI, 24.8 µM (inactive); in the assay on U-251, 35.5 µM (inactive); in the assay with DU-145, 43.7 µM (inactive); in the assay with MDA-N, 29 µM (inactive); in the assay with SF-539 it was 26.2 µM (inactive). Further, the GI50 in the assay on CAKI-1 is 38.9 µM (inactive); with CCRF-CEM it was 33.3 µM (inactive); in the assay with OVCAR-4, 31.9 µM (inactive); in the assay with SK-MEL-2, 22.3 µM (inactive); in the assay with SK-OV-3, 75 µM (inactive); in the assay on SF-295 it was 32.1 µM (inactive). Moreover, the GI50 with KM12 is 32.1 µM (inactive).

As to `Clc1ccc(C2=NN=C3C(c4ccccc4)=Nc4ccccc4N3C2)cc1`, the GI50 was 10.8 µM (inactive) with HOP-62; 2.56 µM (inactive) in the assay on HL-60; 5.45 µM (inactive) in the assay on SW-620; 4.73 µM in the assay on HCT-15; 12.1 µM (inactive) in the assay with BT-549; 3.72 µM (inactive) in the assay with UO-31. Also, the GI50 with NCI-H522 is 2.75 µM (inactive); with LOX IMVI, 3.76 µM (inactive); in the assay on U-251 it was 5.46 µM (inactive); in the assay on DU-145, 1.91 µM (inactive); with MDA-N it was 7.03 µM (inactive); in the assay with SF-539, 19.3 µM (inactive). Besides, the GI50 was 7.19 µM (inactive) in the assay with CAKI-1; 2.03 µM (inactive) in the assay with CCRF-CEM; 2.01 µM (inactive) with OVCAR-4; 17.7 µM (inactive) in the assay with SK-MEL-2; > 74.8 µM (inactive) with SK-OV-3; 11.1 µM (inactive) in the assay on SF-295. Also, the GI50 with KM12 is 6.82 µM (inactive).

Turning to `Cn1cc(-c2n[nH]c(-c3ccc(Cl)cc3)nc2=O)c2ccccc21`, the GI50 was 5.36 µM (inactive) in the assay with HOP-62; 0.671 µM (active) with HL-60; 1.91 µM (inactive) in the assay on SW-620; 1.1 µM in the assay on HCT-15; 5.57 µM (inactive) in the assay with BT-549; 1.06 µM (active) in the assay with UO-31. Further, the GI50 is 0.959 µM (active) in the assay on NCI-H522; 5.64 µM (inactive) with LOX IMVI; 2.31 µM (inactive) in the assay on U-251; 3.2 µM (inactive) in the assay on DU-145; 0.399 µM (active) in the assay on MDA-N; 1.08 µM (active) with SF-539. The GI50 in the assay with CAKI-1 is 1.36 µM (inactive); with CCRF-CEM it was 1.77 µM (inactive); in the assay on OVCAR-4 it was 15.1 µM (inactive); with SK-MEL-2, 3.4 µM (inactive); in the assay on SK-OV-3, 4.31 µM (inactive); in the assay on SF-295, 1.43 µM (inactive). Besides, the GI50 in the assay with KM12 was 0.776 µM (active).

As to `N#Cc1c(-c2cccc(Cl)c2)cc(-c2ccc(Cl)cc2)nc1N`, the GI50 is 17.3 µM (inactive) in the assay with HOP-62; 38.1 µM (inactive) with HL-60; 17.5 µM (inactive) in the assay on SW-620; 17.1 µM in the assay on HCT-15; 18.6 µM (inactive) with BT-549; 14.2 µM (inactive) in the assay on UO-31. The GI50 in the assay with NCI-H522 is 15.1 µM (inactive); with LOX IMVI, 17.1 µM (inactive); in the assay on U-251, 16.6 µM (inactive); with DU-145 it was 32.9 µM (inactive); in the assay on MDA-N, 20 µM (inactive); with SF-539, 17.8 µM (inactive). Besides, the GI50 in the assay on CAKI-1 was 26.1 µM (inactive); with CCRF-CEM it was 18.3 µM (inactive); with OVCAR-4 it was 15.7 µM (inactive); in the assay with SK-MEL-2, 18.1 µM (inactive); in the assay with SK-OV-3 it was 18.3 µM (inactive); in the assay with SF-295, 17.2 µM (inactive). In the assay with KM12, the GI50 is 25.2 µM (inactive).
